Drawing on ChEMBL document CHEMBL3745626, “Synthesis of β-boswellic acid derivatives as cytotoxic and apoptotic agents” (Bioorg Med Chem Lett, 2016), this text covers inhibition for 18 molecules.

What all share (type): functional
The nature of test [1]: Anticancer activity against human PC3 cells assessed as growth inhibition at 100 uM after 24 hrs by sulforhodamine B assay. The conditions noted are these: PC-3, 24 h.
In the next test the test system is A549. Description: Anticancer activity against human A549 cells assessed as growth inhibition at 100 uM after 24 hrs by sulforhodamine B assay. The conditions noted are these: A549, 24 h.
The nature of test [2]: Anticancer activity against human HCT116 cells assessed as growth inhibition at 100 uM after 24 hrs by sulforhodamine B assay. Particulars: HCT-116, 24 h.
A short description of test [3]: Anticancer activity against human HT1080 cells assessed as growth inhibition at 100 uM after 24 hrs by sulforhodamine B assay. The conditions noted are these: HT-1080, 24 h.

With `COC(=O)[C@@]1(C)C(=O)/C(=C/c2ccc(F)c(Br)c2)C[C@]2(C)[C@H]3CC=C4[C@@H]5[C@@H](C)[C@H](C)CC[C@]5(C)CC[C@@]4(C)[C@]3(C)CC[C@@H]12`, the inhibition at 100 µM in test [1] turned out to be 40%; with A549, 47%; in test [2] it was 27%; in test [3] it was 43%.
On to `COC(=O)[C@@]1(C)C(=O)/C(=C/c2ccc(F)cc2F)C[C@]2(C)[C@H]3CC=C4[C@@H]5[C@@H](C)[C@H](C)CC[C@]5(C)CC[C@@]4(C)[C@]3(C)CC[C@@H]12`, for which the inhibition at 100 µM came to 20% in test [1], 33% with A549, 32% in test [2] and 0% in test [3].
The like results for `COC(=O)[C@@]1(C)C(=O)/C(=C/c2cccc(Br)c2)C[C@]2(C)[C@H]3CC=C4[C@@H]5[C@@H](C)[C@H](C)CC[C@]5(C)CC[C@@]4(C)[C@]3(C)CC[C@@H]12` were, in that order, 6%, 14%, 8% and 15%.
The matching figures for `COC(=O)[C@@]1(C)C(=O)CC[C@]2(C)[C@H]3CC=C4[C@@H]5[C@@H](C)[C@H](C)CC[C@]5(C)CC[C@@]4(C)[C@]3(C)CC[C@@H]12`: 44%, 56%, 58% and 21%.
`COC(=O)[C@@]1(C)C(=O)/C(=C/c2ccc(OC(F)(F)F)cc2)C[C@]2(C)[C@H]3CC=C4[C@@H]5[C@@H](C)[C@H](C)CC[C@]5(C)CC[C@@]4(C)[C@]3(C)CC[C@@H]12`: the inhibition at 100 µM in test [1] turned out to be 35%; with A549, 14%; in test [2] it was 0%; in test [3], 78%.
As for `COC(=O)[C@@]1(C)C(=O)/C(=C/c2cc(OC)cc(OC)c2)C[C@]2(C)[C@H]3CC=C4[C@@H]5[C@@H](C)[C@H](C)CC[C@]5(C)CC[C@@]4(C)[C@]3(C)CC[C@@H]12`, the inhibition at 100 µM was 41% in test [1], 55% with A549, 21% in test [2] and 17% in test [3].
For the molecule `COC(=O)[C@@]1(C)C(=O)/C(=C/c2cccs2)C[C@]2(C)[C@H]3CC=C4[C@@H]5[C@@H](C)[C@H](C)CC[C@]5(C)CC[C@@]4(C)[C@]3(C)CC[C@@H]12`, the inhibition at 100 µM was 19% in test [1], 42% in the test with A549, 40% in test [2] and 37% in test [3].
The like results for `COC(=O)[C@@]1(C)C(=O)/C(=C/c2ccccc2F)C[C@]2(C)[C@H]3CC=C4[C@@H]5[C@@H](C)[C@H](C)CC[C@]5(C)CC[C@@]4(C)[C@]3(C)CC[C@@H]12` were, in that order, 44%, 47%, 0% and 23%.
The matching figures for `COC(=O)[C@@]1(C)C(=O)/C(=C/c2cc(C(F)(F)F)cc(C(F)(F)F)c2)C[C@]2(C)[C@H]3CC=C4[C@@H]5[C@@H](C)[C@H](C)CC[C@]5(C)CC[C@@]4(C)[C@]3(C)CC[C@@H]12`: 7%, 5%, 10% and 0%.
The like results for `COC(=O)[C@@]1(C)C(=O)/C(=C/c2ccc(Cl)cc2)C[C@]2(C)[C@H]3CC=C4[C@@H]5[C@@H](C)[C@H](C)CC[C@]5(C)CC[C@@]4(C)[C@]3(C)CC[C@@H]12` were, in that order, 10%, 7%, 0% and 6%.
In the case of `COC(=O)[C@@]1(C)C(=O)/C(=C/c2ccccc2Cl)C[C@]2(C)[C@H]3CC=C4[C@@H]5[C@@H](C)[C@H](C)CC[C@]5(C)CC[C@@]4(C)[C@]3(C)CC[C@@H]12`, the inhibition at 100 µM in test [1] was 25%; with A549, 0%; in test [2], 0%; in test [3], 21%.
Take `COC(=O)[C@@]1(C)C(=O)/C(=C/c2ccc3ccccc3n2)C[C@]2(C)[C@H]3CC=C4[C@@H]5[C@@H](C)[C@H](C)CC[C@]5(C)CC[C@@]4(C)[C@]3(C)CC[C@@H]12`: the inhibition at 100 µM stood at 44% in test [1], 37% with A549, 37% in test [2] and 43% in test [3].
For `COC(=O)[C@@]1(C)C(=O)/C(=C/c2ccc(C)cc2)C[C@]2(C)[C@H]3CC=C4[C@@H]5[C@@H](C)[C@H](C)CC[C@]5(C)CC[C@@]4(C)[C@]3(C)CC[C@@H]12`, the inhibition at 100 µM in test [1] stood at 11%; in the test on A549, 28%; in test [2], 20%; in test [3], 26%.
The matching figures for `COC(=O)[C@@]1(C)C(=O)/C(=C/c2ccco2)C[C@]2(C)[C@H]3CC=C4[C@@H]5[C@@H](C)[C@H](C)CC[C@]5(C)CC[C@@]4(C)[C@]3(C)CC[C@@H]12`: 44%, 48%, 18% and 16%.
The matching figures for `COC(=O)[C@@]1(C)C(=O)/C(=C/c2ccccc2[N+](=O)[O-])C[C@]2(C)[C@H]3CC=C4[C@@H]5[C@@H](C)[C@H](C)CC[C@]5(C)CC[C@@]4(C)[C@]3(C)CC[C@@H]12`: 11%, 42%, 21% and 100%.
The matching figures for `COC(=O)[C@@]1(C)C(=O)/C(=C/c2c(Cl)cccc2Cl)C[C@]2(C)[C@H]3CC=C4[C@@H]5[C@@H](C)[C@H](C)CC[C@]5(C)CC[C@@]4(C)[C@]3(C)CC[C@@H]12`: 24%, 74%, 57% and 99%.
As to `COC(=O)[C@@]1(C)C(=O)/C(=C/c2ccc([N+](=O)[O-])cc2)C[C@]2(C)[C@H]3CC=C4[C@@H]5[C@@H](C)[C@H](C)CC[C@]5(C)CC[C@@]4(C)[C@]3(C)CC[C@@H]12`, the inhibition at 100 µM in test [1] came out at 52%; in the test on A549 it was 47%; in test [2] it was 30%; in test [3] it was 36%.
For `COC(=O)[C@@]1(C)C(=O)/C(=C/c2cccc([N+](=O)[O-])c2)C[C@]2(C)[C@H]3CC=C4[C@@H]5[C@@H](C)[C@H](C)CC[C@]5(C)CC[C@@]4(C)[C@]3(C)CC[C@@H]12`, the inhibition at 100 µM in test [1] came out at 10%; with A549 it was 0%; in test [2] it was 6%; in test [3] it was 13%.
